Measurements reported in US11363979B2, “Addressable vertical nanowire probe arrays and fabrication methods” (priority 2016, dated 2022).
Read-outs that look alike come from different tables or passages of the source.

Columns and labels:
[1] = system: mouse hippocampal neurons; assay: Pharmacological stimulation and inhibition of neurons recorded on the vertical Si nanowire probe array; format: cell-based
[2] = system: human iPSC-derived neurons; format: cell-based

Compound | cellular activity / neuronal spiking [1] | firing (rate) of spontaneous action potentials [1] | activity relative to the baseline recording ([1]; extracellular configuration, injection, nanowire recording) | firing (rate) of spontaneous action potentials [2] | activity relative to the baseline recording [1] | cell activity (frequency and amplitude) compared to the baseline spontaneous activity measured on the same channel ([1]; intracellular configuration, injection, nanowire recording)
[Cl-].[K+] [KCl] | increased | increased firing rate | increased activity relative to the baseline recording | increased firing rate | – | –
NC1=N[C@H](O)[C@H]2[C@H]3O[C@]4(O)O[C@@H]([C@@H](O)[C@@]2(N1)[C@@H]4O)[C@]3(O)CO [TTX, tetrodotoxin] | neuronal spiking vanished | – | – | – | eliminated | –
glutamate | increased | – | – | – | – | increase of the cell activity with respect to frequency and amplitude
